In patent US11473089B2, “Aptamer for ADAMTS5 and use for aptamer for ADAMTS5” (RIBOMIC INC., priority 2017, dated 2022):

What was measured:
ADAMTS5 = target: T1, ADAMTS5 (Homo sapiens, UniProt Q9UNA0); assay: ADAMTS5 enzyme inhibition, aggrecan G1-IGD-G2 cleavage, sandwich ELISA detection (evaluation method 2); format: biochemical; conditions: Table 6; 2 nM aptamer; 0.2 nM ADAMTS5, 400 nM substrate, 30 min
T1 construct: purchased R&D systems
T1 sequence (Q9UNA0 262-930): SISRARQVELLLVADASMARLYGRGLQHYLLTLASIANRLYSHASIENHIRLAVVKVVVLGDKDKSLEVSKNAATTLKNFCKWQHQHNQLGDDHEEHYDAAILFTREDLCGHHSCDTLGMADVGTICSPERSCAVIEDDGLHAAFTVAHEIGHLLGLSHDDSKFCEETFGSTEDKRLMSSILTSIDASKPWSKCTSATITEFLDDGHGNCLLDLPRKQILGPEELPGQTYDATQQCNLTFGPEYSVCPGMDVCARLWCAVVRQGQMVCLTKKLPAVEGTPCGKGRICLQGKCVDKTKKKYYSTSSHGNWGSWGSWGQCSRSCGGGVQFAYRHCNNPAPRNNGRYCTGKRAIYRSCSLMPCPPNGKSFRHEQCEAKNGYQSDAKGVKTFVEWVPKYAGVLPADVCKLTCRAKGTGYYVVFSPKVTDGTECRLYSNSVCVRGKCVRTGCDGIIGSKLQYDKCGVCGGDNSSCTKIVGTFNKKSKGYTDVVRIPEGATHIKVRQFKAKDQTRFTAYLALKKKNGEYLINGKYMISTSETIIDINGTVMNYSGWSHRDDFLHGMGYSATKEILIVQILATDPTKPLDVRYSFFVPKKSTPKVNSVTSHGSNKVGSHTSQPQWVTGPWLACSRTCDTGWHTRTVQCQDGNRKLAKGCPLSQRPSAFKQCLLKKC
Description: On the other hand, the aptamers having the sequences shown by the sequences of SEQ ID NOs: 11(34)-11(35) and SEQ ID NO: 15 were evaluated by the following method (evaluation method 2). The cleavage reaction of the substrate (aggrecan G1-IGD-G2) by ADAMTS5 was performed in the same manner as in Example 1 except the following points. The differences are that the final concentrations of ADAMTS5 and the substrate were respectively 0.2 nM and 400 nM (48 μg/mL), and that the enzyme reaction time was 30 min. After the reaction, the reaction was stopped by adding an excess amount of an ADAMTS5 small molecule inhibitor. The cleaved substrate was quantified by a sandwich ELISA method using two kinds of anti-aggrecan antibodies. […] Using this, the amount of cleaved substrate can be quantified. […] The inhibition rate of the test substance was calculated using the following equation. inhibition rate (%)=(PE−Papt)/(PE−P0)×100 wherein PE is the amount of a cleaved substrate with the addition of ADAMTS5, Papt is the amount of a cleaved substrate with the addition of a test substance, and P0 is the residual amount of a cleaved substrate without the addition of ADAMTS5.
The measurement results of the inhibitory activity of the aptamers having the sequences shown in SEQ ID NOs: 11(34)-11(35) and SEQ ID NO: 15 are shown in Table 6, evaluation method 2. […] “n.d.” means not determined. […]

HFLS-OA cells = assay: aggrecan cleavage inhibitory activity in synovial cells; format: cell-based, human; conditions: Table 11, culture supernatant after 3 days
Description: The aggrecan cleavage inhibitory activity of the aptamers shown in SEQ ID NOs: 11(34), 28(13), 28(15), 28(18) in synovial cells was measured. The measurement was performed by the following method. Synovial cells (HFLS-OA cells) (manufactured by Cell Applications) derived from human knee osteoarthritis patients were seeded at 2×10^4 cells per well, and cultured for 16-24 hr. The culture method followed the manual of Cell Applications. After culturing, the medium was removed, the cells were washed with Basal Medium (manufactured by Cell Applications), and 500 ng of aggrecan G1-IGD-G2 (manufactured by R&D systems) diluted with Basal Medium as a substrate was added. The aptamer was added simultaneously with the substrate to the samples to be evaluated for inhibition by the aptamer. The cells were kept cultured and the culture supernatant was collected after 3 days. The added substrate is cleaved during culture by substrate-cleaving enzymes such as ADAMTS5 secreted from the HFLS-OA cells. The amount of the cleaved substrate fragment contained in the culture supernatant was quantified by the ELISA method described in Example 5. The substrate cleavage efficiency in this evaluation system was 1-8%. The nucleic acid shown in SEQ ID NO: 15 was used as a negative control.

15 (AUUGGCACGGAGACAGCGCUCGCUUCUCGAUCACCAAU; listed as RNA, chemistry not given here) [compound 15]
inhibitory activity (%) evaluation method 2 (ADAMTS5): 16.5% | inhibition rate (%) 3 nM (HFLS-OA cells; 3 nM aptamer): 10% | inhibition rate (%) 30 nM (HFLS-OA cells; 30 nM aptamer): 8% | inhibition rate (%) 300 nM (HFLS-OA cells; 300 nM aptamer): 37%
